Assay results taken from patent publication US6930088B2, “Conformationally constrained backbone cyclized somatostatin analogs” (Peptor Ltd., priority 1998, dated 2005).
“Also recorded” adds a separate entry of the source.

How the values were obtained:
[1] = test system: Opiate receptors; experiment: Guinea-Pig Ileum met-Enkephalin-evoked twitch contraction; settings: preliminary results
[2] = target: T1, SSTR-4 (Homo sapiens, UniProt P31391); experiment: Inhibition of 125I-Tyr11-SRIF binding to membrane preparations expressing SSTR-4; settings: SSTR-R4, read-out: Percent inhibition of SRIF-14 binding
T1 construct: expressed in transfected cells
T1 sequence (P31391 whole entry): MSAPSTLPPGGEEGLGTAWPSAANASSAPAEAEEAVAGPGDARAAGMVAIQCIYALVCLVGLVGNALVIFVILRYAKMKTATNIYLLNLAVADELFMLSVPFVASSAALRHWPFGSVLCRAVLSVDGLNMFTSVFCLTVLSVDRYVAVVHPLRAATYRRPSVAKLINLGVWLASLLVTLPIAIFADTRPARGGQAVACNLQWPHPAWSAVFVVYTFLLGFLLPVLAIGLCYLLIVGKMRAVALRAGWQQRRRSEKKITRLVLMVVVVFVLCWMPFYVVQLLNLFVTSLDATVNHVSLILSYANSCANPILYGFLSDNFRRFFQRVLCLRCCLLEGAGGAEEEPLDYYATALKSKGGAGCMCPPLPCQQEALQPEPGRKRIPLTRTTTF
Description: (§1) The somatostatin analogs were tested for their potency in inhibition of the binding of ^125I-Tyr^11-SRIF (based on the method described by Raynor et. al., Molecular Pharmacology, 1993, 43, 838-844) to membrane preparations expressing the transmembranal somatostatin receptors (SSTR-1, 2, 3, 4 or 5). The receptor preparations used for these tests were either from the cloned human receptors selectively and stably expressed in Chinese Hamster Ovary (CHO) cells or from cell lines naturally expressing the SSTRs. Typically, cell membranes were homogenated in Tris buffer in the presence of protease inhibitors and incubated for 30-40 minutes with ^125I-Tyr^11-SRIF with different concentrations of the tested sample. The binding reactions were filtered, the filters were washed and the bound radioactivity was counted in gamma counter. Non specific binding was defined as the radioactivity remaining bound in the presence of 1 μM unlabeled SRIF-14.
(§2) In order to validate positive signals of the binding tests, and to eliminate non-specific signals, samples of irrelevant peptides, such as GnRH, that were synthesized and handled using the same procedures, were tested in the same assays as negative control samples. These samples had no binding activity in any of the assays. Results are shown below in Tables 5 and 6 and FIG. 1.

[3] = target: T2, SSTR-1 (Homo sapiens, UniProt P30872); experiment: Inhibition of 125I-Tyr11-SRIF binding to membrane preparations expressing SSTR-1; settings: read-out: Percent inhibition of SRIF-14 binding
T2 construct: expressed in transfected cells
T2 sequence (P30872 whole entry): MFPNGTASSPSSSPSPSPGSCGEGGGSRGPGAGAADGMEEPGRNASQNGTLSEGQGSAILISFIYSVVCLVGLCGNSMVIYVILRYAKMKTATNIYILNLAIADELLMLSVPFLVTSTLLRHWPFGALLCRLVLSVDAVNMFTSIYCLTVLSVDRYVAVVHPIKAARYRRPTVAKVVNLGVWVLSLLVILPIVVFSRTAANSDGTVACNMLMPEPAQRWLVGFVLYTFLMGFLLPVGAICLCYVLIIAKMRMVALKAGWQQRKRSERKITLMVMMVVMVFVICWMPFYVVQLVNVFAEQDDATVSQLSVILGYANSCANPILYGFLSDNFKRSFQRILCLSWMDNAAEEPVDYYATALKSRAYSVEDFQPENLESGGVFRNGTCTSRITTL
Description: as §1, with “Typically, cell membranes were homogenated in Tris buffer in the presence of protease inhibitors and incubated for 30-40 minutes with ^125I-Tyr^11-SRIF with different concentrations of the tested sample.” left out
as §2

[4] = test system: other G-protein coupled receptors; experiment: Binding to non-somatostatin G-protein coupled receptors; settings: screening vs. Octreotide and SRIF
Text: This characteristic is of great advantageous because binding to non-somatostatin receptors could cause potential adverse effects in the body.
NovaScreen (Hanover, Md.) performed an assessment for nonspecific binding to various G-protein coupled receptor families. Binding studies to Neurokinin, Opiate and Muscarinic receptors were based on a comparison between the native hormone Somatostatin, Ocreotide and PTR 3173.

[5] = test system: growth hormone (GH) release; experiment: In-vivo inhibition of growth hormone release; set-up: species or system Wistar male rats
Description: Inhibition of growth hormone (GH) release as a result of peptide administration was measured in Wistar male rats.
Adult male Wistar rats weighing 200-250 g, were maintained on a constant light-dark cycle (light from 8:00 to 20:00 h), temperature (21±3° C.), and relative humidity (55±10%). Laboratory chow and tap water were available ad libitum. On the day of the experiment, rats were anesthetized with Nembutal (IP, 60 mg/kg). Ten minutes after anesthesia, drugs were administered S.C. at 0.01-100 microgram/kg dose. Stimulation of GH was performed by I.V. administration of 0.5 g/kg of L-Arginine through femoral vein. Sampling was carried out following 5 minutes of stimulation, at 15 or 30 minutes after peptide administration. Blood samples were collected form abdominal vena-cava into tubes containing heparin (15 units per ml of blood) and centrifuged immediately. Plasma was separated and kept frozen at −20° C. until assayed. Rat growth hormone (rGH) [^125I] levels were determined by means of a radioimmunoassay kit (Amersham). The standard in this kit has been calibrated against a reference standard preparation (NIH-RP2) obtained from the National Institute of Diabetes and Digestive and Kidney Diseases. All samples were measured in duplicate.

[6] = test system: human peripheral blood lymphocytes (PBL); experiment: Human PBL proliferation assay (mitogenicity); format: cell-based; settings: PBL proliferation assays
Text: PTR 3173 was furthermore found to be not mitogenic for human lymphocytes in human peripheral blood lymphocytes (PBL) proliferation assays.

[7] = Initial safety testing in rodents; format: in vivo; settings: dose 10,000-fold higher then the efficacious dose for inhibiting Growth hormone release
Description: (§3) PTR 3173 was tested in various species for its initial safety properties. Under the European Pharmacopoeia requirements for safety testing, it was declared a safe drug candidate at this stage of development.

[8] = test system: somatostatin receptors (SSTR-1, 2, 3, 4 or 5); experiment: Somatostatin receptor subtype selectivity of binding; set-up: species or system human; settings: in words
Description: as §1, §2

[9] = test system: glucagon release; experiment: In-vivo effect on glucagon release; set-up: species or system Wistar male rats
Description: In-vivo determination of the release of glucogon as a result of peptide administration was measured in Wistar male rats.
Time course profiles for glucagon release under constant experimental conditions were measured.
Male Wistar rats were fasted overnight. Animals were anesthetized with Nembutal (IP, 60 mg/kg). Ten minutes after anesthesia, drugs were administrated S.C. at 0.01-100 microgram/kg dose. Stimulation of glucagon secretion was performed by I.V. administration of L-arginine, 0.5 g/kg, 5 minutes before blood collection from portal vein. Hormone concentration was measured by RIA.

[10] = Metabolic bio-stability against degradation by enzyme mixtures; format: in vitro ADME; settings: in words; renal homogenate, rat liver homogenate and human serum
[11] = Initial safety testing in dogs; format: in vivo; settings: dose 10,000-fold higher then the efficacious dose for inhibiting Growth hormone release
Description: as §3

[12] = test system: CHO cells expressing human cloned SST-R5; experiment: In-vitro cell-growth inhibition; format: cell-based
Description: Pharmacological evaluation of growth inhibition was performed utilizing CHO cells expressing human cloned SST-R5.

[13] = Table 4, physiological selectivity

In the case of `C[C@@H](O)[C@@H]1NC(=O)[C@H](CCCCN)NC(=O)[C@@H](Cc2c[nH]c3ccccc23)NC(=O)[C@H](Cc2c[nH]c3ccccc23)NC(=O)[C@H](Cc2ccccc2)NC(=O)CCCNC(=O)CCCN(CC(N)=O)C(=O)[C@H](Cc2ccccc2)NC1=O` [PTR 3173, GABA*-Phe-Trp-(D)Trp-Lys-Thr-Phe-Gly(C3)-X], the “effect on met-Enkephalin-evoked twitch contraction” value [1] is reported as “did not affect met-Enkephalin-evoked twitch contraction”, the inhibition at 1 µM ([2]; 10^−6 M) is reported as 5% and the inhibition at 0.1 µM ([2]; 10^−7 M) is reported as 5%. For the same compound, the inhibition at 0.01 µM ([2]; 10^−8 M) was 0%, the inhibition at 0.001 µM ([2]; 10^−9 M) was 0% and the inhibition at 0.0001 µM ([2]; 10^−10 M) was 0%. For the same compound, the inhibition at 10 pM ([2]; 10^−11 M) was 0%, the inhibition at 10 pM [3] was 0% and the inhibition at 0.0001 µM [3] was 0%. The inhibition at 0.001 µM [3] was 0%, the inhibition at 0.01 µM [3] was 0% and the inhibition at 0.1 µM [3] was 5%. For the same compound, the inhibition at 1 µM [3] was 15%, the “binding to other G-protein coupled receptors” value [4] was “binds significantly less other G-protein coupled receptors than Octreotide” and the “effect on growth hormone release” value ([5]; 100 micrograms per kilogram, L-arginine stimulation, Nembutal anesthesia, FIG. 3) was “equipotent inhibitors of growth hormone release in comparison to Octreotide”. The “GH ID50” value [5, 13] was 0.1 µg/kg, the “effect on growth hormone (general statement)” value ([5]; in words, no dose stated) was “significant inhibition with prolonged duration of action on the Growth Hormone-IGF-1 axis of a similar magnitude as the drug Octreotide; also recorded: potent inhibitor of growth hormone” and the “mitogenicity for human lymphocytes” value [6] was “not mitogenic”. For the same compound, the toxicity signs [7] was “No toxicity signs”, the “somatostatin receptor subtype selectivity” value [8] was “selective for receptors 2 and 5; also recorded: improved selectivity of binding to the SST receptor subtype SST-R2 and SST-R5” and the “somatostatin receptor subtype selectivity” value ([8]; listed as PTR-3173) was “SST-R2+SST-R5”. The “effect on glucagon levels compare to control” value ([9]; 100 micrograms per kilogram, FIG. 4) was “statistically significant difference in glucagon levels compare to control”, the “Glucagon ID50” value [9, 13] was >100 µg/kg and the “effect on glucagon (general statement)” value ([9]; in words, no dose stated) was “considerably lower affect on the release of glucagon than Octreotide; also recorded: much less activity on glucagon”. For the same compound, the “GH Glucagon” value ([9]; ratio of ID50 values, Table 4) was >1,000, the “metabolic bio-stability against degradation by enzymes” value [10] was “considerable metabolic bio-stability against degradation by enzymes” and the toxicity signs [11] was “No toxicity signs”. The growth inhibition [12] was “significant growth inhibition; also recorded: considerably higher potency of growth inhibition compared to the native hormone and the drug Octreotide”.
